Data: patent publication US20250289789A1, “REVERSIBLE LYSINE COVALENT MODIFIERS OF CDK2 AND USES THEREOF” (Terremoto Biosciences, Inc., priority 2023, published 2025)
≈ marks a conversion by molar mass, not a printed value.

Test: Solubility determination in PBS pH 7.4
Assay type: physicochemical
Details: aqueous buffer, kinetic from dmso stock; PBS pH 7.4, 2 hours, 25° C.; the listed prodrug
Experimental: Stock solutions (10 mM DMSO, 30 μL) of each sample were placed into 96-well plate, along with 970 μL of PBS pH 7.4 were added into each vial of the cap-less solubility sample plate. The assay was performed in duplicate. A stir stick was added to each well and sealed using a molded PTFE/Silicone plug. Then the Solubility Sample plate was transferred to an Eppendorf Thermomixer Comfort plate shaker and shaken at 1100 RPM for 2 hours at 25° C. After completion the plugs and stir sticks were removed and the samples were transferred into a filter plate and filtered using a vacuum manifold. 5 μL aliquots of filtrate were taken and diluted with 5 μL DMSO and 490 μL of a 1:1 v/v mixture of H2O and acetonitrile. 200 μL of diluent was transferred to a new 96-well plate for LC-MS/MS analysis. The solution was analyzed and quantified against a standard of known concentration in DMSO using LC coupled with Mass spectral peak for identification and quantitation.
For `COc1cc(O)c(/C=N/C(C)C)c(OCC(=O)Nc2cc([C@H]3CC[C@@H](OC(=O)NC(C)C)C3)[nH]n2)c1` [Compound 64a, (1R,3S)-3-(3-(2-(3-hydroxy-2-((E)-(isopropylimino)methyl)-5-methoxyphenoxy)acetamido)-1H-pyrazol-5-yl)cyclopentyl isopropylcarbamate], the solubility at 2 h was 215 µM (≈ 108 µg/mL).
Compound `CCC/N=C/c1c(O)cc(OC)cc1OCC(=O)Nc1cc([C@H]2CC[C@@H](OC(=O)NC(C)C)C2)[nH]n1` [Compound 64b, (1R,3S)-3-(3-(2-(3-hydroxy-5-methoxy-2-((E)-(propylimino)methyl)phenoxy)acetamido)-1H-pyrazol-5-yl)cyclopentyl isopropylcarbamate] has a solubility at 2 h of 79 µM (≈ 39.6 µg/mL).
Compound `CC/N=C/c1c(O)cc(OC)cc1OCC(=O)Nc1cc([C@H]2CC[C@@H](OC(=O)NC(C)C)C2)[nH]n1` [Compound 64c, (1R,3S)-3-(3-(2-(2-((E)-(ethylimino)methyl)-3-hydroxy-5-methoxyphenoxy)acetamido)-1H-pyrazol-5-yl)cyclopentyl isopropylcarbamate] has a solubility at 2 h of 246 µM (≈ 120 µg/mL).
`CCCC/N=C/c1c(O)cc(OC)cc1OCC(=O)Nc1cc([C@H]2CC[C@@H](OC(=O)NC(C)C)C2)[nH]n1` [Compound 64d, (1R,3S)-3-(3-(2-(2-((E)-(butylimino)methyl)-3-hydroxy-5-methoxyphenoxy)acetamido)-1H-pyrazol-5-yl)cyclopentyl isopropylcarbamate] showed a solubility at 2 h of 67 µM (≈ 34.5 µg/mL).
With `CCOC(=O)C/N=C/c1c(O)cc(OC)cc1OCC(=O)Nc1cc([C@H]2CC[C@@H](OC(=O)NC(C)C)C2)[nH]n1` [Compound 64p, Ethyl 2-(((E)-2-hydroxy-6-(2-((5-((1S,3R)-3-((isopropylcarbamoyl)oxy)cyclopentyl)-1H-pyrazol-3-yl)amino)-2-oxoethoxy)-4-methoxybenzylidene)amino)acetate] the solubility at 2 h was 4.8 µM (≈ 2.62 µg/mL).
In the case of `COc1cc(O)c(/C=N/CCS(=O)(=O)O)c(OCC(=O)Nc2cc([C@H]3CC[C@@H](OC(=O)NC(C)C)C3)[nH]n2)c1` [Compound 64q, 2-(((E)-2-hydroxy-6-(2-((5-((1S,3R)-3-((isopropylcarbamoyl)oxy)cyclopentyl)-1H-pyrazol-3-yl)amino)-2-oxoethoxy)-4-methoxybenzylidene)amino)ethane-1-sulfonic acid], the solubility at 2 h was 243 µM (≈ 138 µg/mL).
In the case of `CC(C)/N=C/c1c(O)cccc1OCC(=O)Nc1cc([C@H]2CC[C@@H](OC(=O)NC3(C)CC3)C2)[nH]n1` [Compound 82a, (1R,3S)-3-(3-(2-(3-hydroxy-2-((E)-(isopropylimino)methyl)phenoxy)acetamido)-1H-pyrazol-5-yl)cyclopentyl (1-methylcyclopropyl)carbamate], the solubility at 2 h was 34 µM (≈ 16.4 µg/mL).
Work on `COc1cc(O)c(/C=N/C(C)C)c(OCC(=O)Nc2cc([C@H]3CC[C@@H](OC(=O)NC(C)(C)C)C3)[nH]n2)c1` [Compound 128a, (1R,3S)-3-(3-(2-(3-hydroxy-2-((E)-(isopropylimino)methyl)-5-methoxyphenoxy)acetamido)-1H-pyrazol-5-yl)cyclopentyl tert-butylcarbamate] yielded a solubility at 2 h of 191 µM (≈ 98.5 µg/mL).
For `Cc1cc(O)c(/C=N/C(C)C)c(OCC(=O)Nc2cc([C@H]3CC[C@@H](OC(=O)NC4(C)CC4)C3)[nH]n2)c1` [Compound 145a, (1R,3S)-3-(3-(2-(3-hydroxy-2-((E)-(isopropylimino)methyl)-5-methylphenoxy)acetamido)-1H-pyrazol-5-yl)cyclopentyl (1-methylcyclopropyl)carbamate], the solubility at 2 h was 68 µM (≈ 33.8 µg/mL).
`COc1cc(O)c(/C=N/C(C)C)c(OCC(=O)Nc2cc([C@H]3CC[C@@H](OC(=O)N(C)N(C)C)C3)[nH]n2)c1` [Compound 172a, (1R,3S)-3-(3-(2-(3-hydroxy-2-((E)-(isopropylimino)methyl)-5-methoxyphenoxy)acetamido)-1H-pyrazol-5-yl)cyclopentyl 1,2,2-trimethylhydrazine-1-carboxylate] showed a solubility at 2 h of 227 µM (≈ 117 µg/mL).
`CCCNC(=O)O[C@@H]1CC[C@H](c2cc(NC(=O)COc3cc(OC)cc(O)c3/C=N/C(C)C)n[nH]2)C1` [Compound 221a, (1R,3S)-3-(3-(2-(3-hydroxy-2-((E)-(isopropylimino)methyl)-5-methoxyphenoxy)acetamido)-1H-pyrazol-5-yl)cyclopentyl propylcarbamate] gave a solubility at 2 h of 156 µM (≈ 78.2 µg/mL).
For `COc1cc(O)c(/C=N/C(C)C)c(OCC(=O)Nc2cc([C@H]3C[C@@H](OC(=O)NC(C)C)C3)[nH]n2)c1` [Compound 223a, (1s,3s)-3-(3-(2-(3-hydroxy-2-((E)-(isopropylimino)methyl)-5-methoxyphenoxy)acetamido)-1H-pyrazol-5-yl)cyclobutyl isopropylcarbamate], the solubility at 2 h was 6.7 µM (≈ 3.27 µg/mL).
Work on `COc1cc(O)c(/C=N/C(C)C)c(OCC(=O)Nc2cc([C@H]3CC[C@@H](OC(=O)NC4(C)CC4)C3)[nH]n2)c1` [Compound 251a, (1R,3S)-3-(3-(2-(3-hydroxy-2-((E)-(isopropylimino)methyl)-5-methoxyphenoxy)acetamido)-1H-pyrazol-5-yl)cyclopentyl (1-methylcyclopropyl)carbamate] yielded a solubility at 2 h of 50 µM (≈ 25.7 µg/mL).
Work on `CCC/N=C/c1c(O)cc(OC)cc1OCC(=O)Nc1cc([C@H]2CC[C@@H](OC(=O)NC3(C)CC3)C2)[nH]n1` [Compound 251b, (1R,3S)-3-(3-(2-(3-hydroxy-5-methoxy-2-((E)-(propylimino)methyl)phenoxy)acetamido)-1H-pyrazol-5-yl)cyclopentyl (1-methylcyclopropyl)carbamate] yielded a solubility at 2 h of 41 µM (≈ 21.1 µg/mL).
Compound `CC/N=C/c1c(O)cc(OC)cc1OCC(=O)Nc1cc([C@H]2CC[C@@H](OC(=O)NC3(C)CC3)C2)[nH]n1` [Compound 251c, (1R,3S)-3-(3-(2-(2-((E)-(ethylimino)methyl)-3-hydroxy-5-methoxyphenoxy)acetamido)-1H-pyrazol-5-yl)cyclopentyl (1-methylcyclopropyl)carbamate] has a solubility at 2 h of 48 µM (≈ 24 µg/mL).

Test: Oral bioavailability and pharmacokinetic analysis following oral administration in Nu/Nu mice
Details: male, in vivo
Experimental: Compound was administered via oral gavage in male Nu/Nu mice (n=3). The vehicle composition was 10% N-Methylpyrrolidone, 40% PEG300, 50% water (pH=4-8) at 6 mg-equivalent/mL to parent drug and a dose volume of 5 mL/Kg. Formulations were prepared freshly before dosing and stored at room temperature. Plasma samples were collected at the following time intervals: 0.5, 1, 2, 4, 8, 12, 24, 48, and 72 hours post dose (based on the start of oral dosing). Serial blood samples were collected (approximately 0.025 mL) via retro-orbital vein into K2EDTA. Whole blood was processed into plasma by centrifuge (4000 rpm for 5 minutes at 4° C.) followed by addition of 0.5 M ammonium formate (pH=3, 300% of plasma volume). Plasma samples were stored in a freezer at −75±15° C. until analysis. Plasma samples were analyzed after thawing and incubating for 1 h at 37° C. followed by protein precipitation with acetonitrile containing IS mixture (vortex 30 s, centrifugation at 4° C., 400 rpm for 15 min) and the resulting supernatant was further diluted with water before injecting onto Shimadzu 8060 LC-MS/MS system for analysis. Unknown plasma samples concentration was calibrated using standard range of 0.2 to 1 000 ng/mL for parent.
Bioavailability (% F) was calculated by comparing observed plasma concentrations of parent drug after oral administration of prodrug or parent drug to observed plasma concentrations via IV (intravenous) administration of parent drug.
For `COc1cc(O)c(/C=N/C(C)C)c(OCC(=O)Nc2cc([C@H]3CC[C@@H](OC(=O)N4C5COCC4C5)C3)[nH]n2)c1` [Compound 231a, (1R,3S)-3-(3-(2-(3-hydroxy-2-((E)-(isopropylimino)methyl)-5-methoxyphenoxy)acetamido)-1H-pyrazol-5-yl)cyclopentyl 3-oxa-6-azabicyclo[3.1.1]heptane-6-carboxylate], the “Prodrug Mouse % F” value was 2.8%.
For `COc1cc(O)c(/C=N/C(C)C)c(OCC(=O)Nc2cc([C@H]3CC[C@@H](OC(=O)N4CC5CC(C4)O5)C3)[nH]n2)c1` [Compound 235a, (1R,3S)-3-(3-(2-(3-hydroxy-2-((E)-(isopropylimino)methyl)-5-methoxyphenoxy)acetamido)-1H-pyrazol-5-yl)cyclopentyl 6-oxa-3-azabicyclo[3.1.1]heptane-3-carboxylate], the “Prodrug Mouse % F” value was 3.2%.

Same assay, conditions: male, mouse, in vivo, 6 mg
For `COc1cc(O)c(/C=N/C(C)C)c(OCC(=O)Nc2cc([C@H]3CC[C@@H](OC(=O)N4C5COCC4C5)C3)[nH]n2)c1` [Compound 231a, (1R,3S)-3-(3-(2-(3-hydroxy-2-((E)-(isopropylimino)methyl)-5-methoxyphenoxy)acetamido)-1H-pyrazol-5-yl)cyclopentyl 3-oxa-6-azabicyclo[3.1.1]heptane-6-carboxylate], the “Prodrug AUCinf” value was 12.9 µM·h.
With `COc1cc(O)c(/C=N/C(C)C)c(OCC(=O)Nc2cc([C@H]3CC[C@@H](OC(=O)N4CC5CC(C4)O5)C3)[nH]n2)c1` [Compound 235a, (1R,3S)-3-(3-(2-(3-hydroxy-2-((E)-(isopropylimino)methyl)-5-methoxyphenoxy)acetamido)-1H-pyrazol-5-yl)cyclopentyl 6-oxa-3-azabicyclo[3.1.1]heptane-3-carboxylate] the “Prodrug AUCinf” value was 15.2 µM·h.
